Test results published in patent publication US20110207729A1, “BICYCLIC ACYLGUANIDINE DERIVATIVE” (ASTELLAS PHARMA INC., priority 2007, published 2011).
pKi: −log10 of the molar value. Where a name gives a salt, the structure may show the parent alone.

Biological target: T1, human 5-HT5A receptor (Homo sapiens, UniProt P47898)
T1 construct: expressed in transfected cells; membrane preparation
Assay: Test on a human 5-HT5A receptor binding inhibition ([3H]5-CT)
Details: membrane from HEK293 cells expressing human 5-HT5A receptor; Ki calculated from IC50 and Kd 4.95 nM
Method: Acquisition of HEK293 cells for forced expressions of a human 5-HT5A receptor
The ORF (open reading frame; protein coding region) of a human 5-HT5A receptor (Genbank AF498985) was cloned from a human hippocampus cDNA library, and then inserted into a pCR2.1 vector (Invitrogen), and Escherichia coli containing the plasmid was cultured in a large amount. Next, the full-length cDNA sequence of the human 5-HT5A receptor was analyzed, and recombined into a pcDNA3.1 vector (Invitrogen) as an expression vector and cultured in a large amount. HEK293 established cells (ATCC) derived from the human fetal kidney were seeded, the expression plasmid (1 μg) obtained above were added thereto with LIPOFECTAMINE 2000 (Invitrogen; 2 μl), the gene was transfected into HEK293 cells, and the expression cells were screened with a drug-resistant marker, Geneticin (G418 sulfate 500 μg/ml; Kanto Chemical Co., Inc.). Thus prepared recombinant cells which express the gene were cultured in a medium containing D-MEM (Dulbecco's modified eagle medium, Sigma), 10% FCS (Fetal calf serum: fetal bovine serum), 1% Pc./Sm (Penicillin/Streptomycin, Invitrogen), and 500 μg/ml G418 for 3 days. These experimental operations follow an manual for gene operation experiment and an instruction appended in a reagent, and the like, such as a known method (Sambrook, J. et al, Molecular Cloning—A Laboratory Manual”, Cold Spring Harabor laboratory, NY, 1989).
(1) Preparation of a Membrane from HEK293 Cells for Forced Expressions of a Human 5-HT5A Receptor
HEK293 cells for forced expressions of a human 5-HT5A receptor were cultured in a F500 plate, and scraped with a scraper. After centrifugation, a precipitate was collected, and an incubation buffer (50 mM Tris (HCl) (pH 7.4), 10 mM MgSO4, and 0.5 mM EDTA (ethylenediamine tetraacetic acid)) were added thereto. After homogenization, it was further centrifuged, and the precipitate was added with the incubation buffer, followed by thoroughly suspending. This operation was repeated, and a protein concentration was measured, thereby completing the preparation of a membrane.
(2) Test on a Human 5-HT5A Receptor Binding Inhibition
A solution of a compound to be tested and 100 μM 5-CT (5-carboxamidetriptamine) in DMSO was added to a 96-well plate at 2 μl/well, and suspended in an incubation buffer, and a membrane from HEK293 cells for forced expressions of a human 5-HT5A receptor prepared at 200 μg/ml was added at 100 μl/well. After incubation at room temperature for 15 minutes, a [^3H]5-CT solution (2 nM [^3H]5-CT, incubation buffer) was added thereto at 100 μl/well.
Separately, 100 μl of the solution was distributed into a liquid scintillation vial, and 2 ml of Aquasol II (registered trademark) was added thereto, followed by stirring. Then, a radioactivity was measured by a liquid scintillation counter. It was incubated at 37° C. for 60 minutes. The reaction mixture was sucked into 96-well GF/C filter plate that had been pre-treated with 0.2% polyethyleneimine, and washed six times with an ice-cooled, 50 mM Tris (pH 7.5) buffer. The GF/C filter plate was dried.
Microscint TMPS (registered trademark) was added thereto at 40 μl/well. A radioactivity remaining on the GF/C filter plate was measured by a top counter.
The [^3H]5-CT binding inhibiting activity by the compound to be tested in each experiment was determined as an IC50 value with a radioactivity upon addition of DMSO alone being 0% inhibition, and a radioactivity upon addition of 1 μM 5-CT being 100% inhibition. Separately, a Ki value was calculated from the Kd value of the [^3H]5-CT determined from Scatchard analysis, by the following equation.
Ki=IC50(1+Concentration of ligands added/Kd(4.95 nM))

T1 sequence (P47898 whole entry): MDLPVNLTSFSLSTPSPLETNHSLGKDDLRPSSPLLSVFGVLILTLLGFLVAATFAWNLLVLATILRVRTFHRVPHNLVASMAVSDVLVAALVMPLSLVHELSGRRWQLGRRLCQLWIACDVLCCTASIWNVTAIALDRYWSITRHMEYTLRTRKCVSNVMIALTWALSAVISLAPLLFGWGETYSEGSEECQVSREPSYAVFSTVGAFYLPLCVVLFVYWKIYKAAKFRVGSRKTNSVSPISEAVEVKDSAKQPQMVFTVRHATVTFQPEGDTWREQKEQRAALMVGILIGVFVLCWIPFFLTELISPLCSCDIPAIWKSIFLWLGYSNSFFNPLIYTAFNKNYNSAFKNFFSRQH

| Compound | pKi |
| --- | --- |
| CC1=C(c2cc(F)c(F)cc2F)c2cc(C(=O)N=C(N)N)ccc2CC1 [Example 2-143] | 8.52 to 9.52 |
| CC1=C(c2ccc(Cl)cc2Cl)c2cc(C(=O)N=C(N)N)ccc2CC1 [Example 2-144] | 8.52 to 9.52 |
| NC(N)=NC(=O)c1ccc2c(c1)C(c1cncc(Cl)c1)=CCC2 [Example 2-150] | 6.52 to 7.52 |
| NC(N)=NC(=O)c1ccc2c(c1)C(c1cncs1)=CCC2 [Example 2-157] | 7.52 to 8.52 |
| NC(N)=NC(=O)c1ccc2c(c1)C(c1ccncc1F)=CCC2 [Example 2-158] | 8.52 to 9.52 |
| CC1=C(c2ccc(F)cc2C)c2cc(C(=O)N=C(N)N)ccc2CC1 [Example 2-163] | 8.52 to 9.52 |
| CC1=C(c2ccc(C)cc2C)c2cc(C(=O)N=C(N)N)ccc2CC1 [Example 2-164] | 8.52 to 9.52 |
| COc1ccc(C2=CCCc3ccc(C(=O)N=C(N)N)cc32)c(C(F)(F)F)c1 [Example 2-165] | 7.52 to 8.52 |
| COc1cc(C#N)ccc1C1=C(F)CCc2ccc(C(=O)N=C(N)N)cc21 [Example 2-166] | 8.52 to 9.52 |
| CC(C)n1cc(C2=CCCc3ccc(C(=O)N=C(N)N)cc32)cn1 [Example 2-167] | 6.52 to 7.52 |
| NC(N)=NC(=O)c1ccc2c(c1)C(c1cccc(F)c1Cl)=CCC2 [Example 2-168] | 8.52 to 9.52 |
| NC(N)=NC(=O)c1ccc2c(c1)C(c1cc(F)ccc1Cl)=CCC2 [Example 2-169] | 7.52 to 8.52 |
| COc1ccc(C2=C(C)CCc3ccc(C(=O)N=C(N)N)cc32)c(C)c1 [Example 2-170] | 8.52 to 9.52 |
| NC(N)=NC(=O)c1ccc2c(c1)C(c1ccc3nccn3c1)=CCC2 [Example 2-171] | 7.52 to 8.52 |
| COc1ccc(C2=CCCc3ccc(C(=O)N=C(N)N)cc32)c(OC)n1 [Example 2-173] | 7.52 to 8.52 |
| NC(N)=NC(=O)c1ccc2c(c1)C(c1ccnc(Cl)c1)=CCC2 [Example 2-174] | 7.52 to 8.52 |
| N#Cc1ccc(F)cc1C1=CCCc2ccc(C(=O)N=C(N)N)cc21 [Example 2-175] | 6.52 to 7.52 |
| NC(N)=NC(=O)c1ccc2c(c1)C(c1cccnc1Cl)=CCC2 [Example 2-176] | 7.52 to 8.52 |
| CC1=C(c2ccc(F)cc2F)c2cc(C(=O)N=C(N)N)ccc2CC1 [Example 2-177] | 8.52 to 9.52 |
| COc1cc(F)c(C2=C(C)CCc3ccc(C(=O)N=C(N)N)cc32)c(F)c1 [Example 2-178] | 8.52 to 9.52 |
| COc1cc(F)cc(F)c1C1=CCCc2ccc(C(=O)N=C(N)N)cc21 [Example 2-179] | 7.52 to 8.52 |

| Compound | pKi |
| --- | --- |
| N#Cc1cccc(F)c1C1=CCCc2ccc(C(=O)N=C(N)N)cc21 [Example 2-180] | 7.52 to 8.52 |
| COc1cccc(C2=CCCc3ccc(C(=O)N=C(N)N)cc32)c1C#N [Example 2-181] | 6.52 to 7.52 |
| N#Cc1cc(Cl)ccc1C1=CCCc2ccc(C(=O)N=C(N)N)cc21 [Example 2-185] | 6.52 to 7.52 |
| NC(N)=NC(=O)c1ccc2c(c1)C(c1cccc3c1OCCO3)=CCC2 [Example 2-189] | 6.52 to 7.52 |
| NC(N)=NC(=O)c1ccc2c(c1)C(c1c(Cl)cncc1Cl)=CCC2 [Example 2-190] | 7.52 to 8.52 |
| Cn1cc(C2=CCCc3ccc(C(=O)N=C(N)N)cc32)ccc1=O [Example 2-191] | 6.52 to 7.52 |
| NC(N)=NC(=O)c1ccc2c(c1)C(N1CCNCC1)CCC2 (centres unmarked) [Example 3-01, N-(diaminomethylene)-8-piperazin-1-yl-5,6,7,8-tetrahydronaphthalene-2-carboxamide trihydrochloride] | 6.52 to 7.52 |
| NC(N)=NC(=O)c1ccc2c(c1)C(c1ccccc1)CCC2 (centres unmarked) [Example 3-02] | 7.52 to 8.52 |
| NC(N)=NC(=O)c1ccc2c(c1)C(c1ccccc1)=CCCC2 [Example 3-03] | 6.52 to 7.52 |
| N#Cc1ccc(C2=CCCCc3ccc(C(=O)N=C(N)N)cc32)cc1 [Example 3-04] | 6.52 to 7.52 |
| NC(N)=NC(=O)c1ccc2c(c1)C(c1c(F)cc(F)cc1F)=CCCC2 [Example 3-05] | 7.52 to 8.52 |
| COc1ccccc1C1=CCCCc2ccc(C(=O)N=C(N)N)cc21 [Example 3-06] | 6.52 to 7.52 |
| NC(N)=NC(=O)c1ccc2scc(-c3ccccc3)c2c1 [Example 3-07] | 7.52 to 8.52 |
| COc1ccccc1-c1csc2ccc(C(=O)N=C(N)N)cc12 [Example 3-08] | 8.52 to 9.52 |
| NC(N)=NC(=O)c1ccc2occ(-c3ccccc3)c2c1 [Example 3-09] | 6.52 to 7.52 |
| NC(N)=NC(=O)c1ccc2c(c1)C(c1ccccc1)=CCCO2 [Example 3-10] | 7.52 to 8.52 |
| COc1ccccc1C1=CCCOc2ccc(C(=O)N=C(N)N)cc21 [Example 3-11] | 7.52 to 8.52 |
| NC(N)=NC(=O)c1ccc2c(c1)C(c1c(F)cc(F)cc1F)=CCCO2 [Example 3-12] | 8.52 to 9.52 |
| N#Cc1ccc(C2=CCCOc3ccc(C(=O)N=C(N)N)cc32)cc1 [Example 3-13] | 7.52 to 8.52 |
| NC(N)=NC(=O)c1ccc2scc(-c3c(F)cc(F)cc3F)c2c1 [Example 3-14] | 8.52 to 9.52 |
| Cc1ccc(C2=CCSc3ccc(C(=O)N=C(N)N)cc32)c(F)c1 [Example 3-15] | 7.52 to 8.52 |

| Compound | pKi |
| --- | --- |
| NC(N)=NC(=O)c1ccc2c(c1)C(c1c(F)cc(F)cc1F)=CCS2 [Example 3-16] | 8.52 to 9.52 |
| N#Cc1ccc(C2=CCSc3ccc(C(=O)N=C(N)N)cc32)cc1 [Example 3-17] | 7.52 to 8.52 |
| COc1ccccc1C1=CCSc2ccc(C(=O)N=C(N)N)cc21 [Example 3-18] | 6.52 to 7.52 |
| N#Cc1ccccc1C1=CCSc2ccc(C(=O)N=C(N)N)cc21 [Example 3-19] | 7.52 to 8.52 |
| COc1ccc(-c2csc3ccc(C(=O)N=C(N)N)cc23)c(OC)c1 [Example 3-20] | 7.52 to 8.52 |
| COc1ccc(-c2csc3ccc(C(=O)N=C(N)N)cc23)cc1 [Example 3-24] | 7.52 to 8.52 |
| NC(N)=NC(=O)c1ccc2scc(-c3ccc(F)cc3)c2c1 [Example 3-25] | 8.52 to 9.52 |
| NC(N)=NC(=O)c1ccc2scc(-c3ccccc3F)c2c1 [Example 3-26] | 8.52 to 9.52 |
| COc1c(F)cccc1-c1csc2ccc(C(=O)N=C(N)N)cc12 [Example 3-27] | 7.52 to 8.52 |
| COc1ccc(F)cc1-c1csc2ccc(C(=O)N=C(N)N)cc12 [Example 3-28] | 7.52 to 8.52 |
| NC(N)=NC(=O)c1ccc2scc(-c3ccccc3O)c2c1 [Example 3-29] | 8.52 to 9.52 |
| NC(N)=NC(=O)c1ccc2scc(-c3ccc(F)cc3F)c2c1 [Example 3-30] | 8.52 to 9.52 |
| NC(N)=NC(=O)c1ccc2c(c1)C(c1c(F)cc(F)cc1F)CCO2 (centres unmarked) [Example 3-31] | 7.52 to 8.52 |
| NC(N)=NC(=O)c1ccc2scc(-c3cccnc3)c2c1 [Example 3-32] | 6.52 to 7.52 |
| COc1ccccc1-c1c(C)sc2ccc(C(=O)N=C(N)N)cc12 [Example 3-33] | 8.52 to 9.52 |
| CC1(C)CCC(c2c(F)cc(F)cc2F)c2cc(C(=O)N=C(N)N)ccc21 (centres unmarked) [Example 3-34] | 6.52 to 7.52 |
| Cc1sc2ccc(C(=O)N=C(N)N)cc2c1-c1ccccc1F [Example 3-35] | 8.52 to 9.52 |
| NC(N)=NC(=O)c1ccc2scc(-c3ccncc3)c2c1 [Example 3-37] | 6.52 to 7.52 |
| N#Cc1ccccc1-c1csc2ccc(C(=O)N=C(N)N)cc12 [Example 3-38] | 7.52 to 8.52 |
| COc1ccccc1-c1c(C#N)sc2ccc(C(=O)N=C(N)N)cc12 [Example 3-39] | 7.52 to 8.52 |
